Active and inactive are the calls of the source. The rule behind the calls is not given here.
Legend:
HepG2 [1] = assay: Cytotoxicity against human HepG2 cells assessed as ATP level at 10 uM after 120 mins by bioluminescence-based assay relative to control; assay type: cell-based; conditions: hepg2, 2 h
HEK293 [2] = assay: Cytotoxicity against HEK293 cells assessed as reduction in cell viability at 1 uM after 48 hrs by EZ4U labeling based assay; conditions: human, hek293, 48 h
Mus musculus [3] = assay: Anxiolytic-like activity in Swiss albino mouse assessed as increase in number of punished crossings at 1.25 to 5 mg/kg, ip administered for 60 mins measured for 1 min post 3 sec electric shock by four-plate test; assay type: functional, organism-based
[4] = Effective permeability of the compound at 200 uM after 5 hrs by PAMPA; assay type: ADME; conditions: read-out: Peff
Rattus norvegicus [5] = assay: Antidepressant-like activity in Wistar rat assessed as decrease in immobility time at 2.5 mg/kg, ip administered 30 mins prior to test measured for 5 mins by forced swim test; assay type: functional; set-up: scale not given: the % may be the effect or the level left
Rattus norvegicus [6] = assay: Antidepressant-like activity in Wistar rat assessed as decrease in immobility time at 1.25 mg/kg, ip administered 30 mins prior to test measured for 5 mins by forced swim test; assay type: functional; set-up: scale not given: the % may be the effect or the level left
Mus musculus [7] = assay: Antidepressant-like activity in Swiss albino mouse assessed as decrease in immobility time at 10 mg/kg, ip administered 30 mins prior to test measured for last 4 mins of 6 mins observation by forced swim test; assay type: functional, organism-based
Mus musculus [8] = assay: Anxiolytic-like activity in Swiss albino mouse assessed as increase in number of punished crossings at 1 mg/kg, ip administered for 30 mins measured for 1 min post 3 sec electric shock by four-plate test; assay type: functional, organism-based
[9] = Drug level in mouse liver microsomes treated with aripiprazole at 50 uM preincubated for 5 mins followed by NADPH addition measured after 30 mins by UPLC-MS analysis; assay type: ADME, microsome; conditions: 0.5 h
[10] = Drug level in rat liver microsomes treated with aripiprazole at 50 uM preincubated for 5 mins followed by NADPH addition measured after 30 mins by UPLC-MS analysis; assay type: ADME, microsome; conditions: 0.5 h
[11] = Drug level in human liver microsomes treated with aripiprazole at 50 uM preincubated for 5 mins followed by NADPH addition measured after 30 mins by UPLC-MS analysis; assay type: ADME, microsome; conditions: 0.5 h
[12] = Activity at recombinant human Pgp expressed in cell membranes assessed as basal ATPase activity at 100 uM after 200 mins by P-gp Glo assay relative to control; assay type: ADME
Mus musculus [13] = assay: Antidepressant-like activity in Swiss albino mouse assessed as decrease in immobility time at 10 to 20 mg/kg, ip administered 30 mins prior to test measured for last 4 mins of 6 mins observation by forced swim test; assay type: functional, organism-based
Rattus norvegicus [14] = assay: Antidepressant-like activity in Wistar rat assessed as decrease in immobility time at 30 mg/kg, ip administered 30 mins prior to test measured for 5 mins by forced swim test; assay type: functional; set-up: scale not given: the % may be the effect or the level left
Mus musculus [15] = assay: Antidepressant-like activity in Swiss albino mouse assessed as decrease in immobility time at 5 mg/kg, ip administered 60 mins prior to test measured for last 4 mins of 6 mins observation by forced swim test; assay type: functional; set-up: scale not given: the % may be the effect or the level left
[16] = Drug metabolism in human liver microsomes at 50 uM preincubated for 5 mins followed by NADPH addition measured after 30 mins by UPLC-MS analysis; assay type: ADME, microsome; conditions: 0.5 h
[17] = Intrinsic clearance in mouse liver microsomes at 50 uM preincubated for 5 mins followed by NADPH addition measured up to 30 mins; assay type: ADME, microsome; conditions: read-out: CLH
HEK293 [18] = assay: Cytotoxicity against HEK293 cells assessed as reduction in cell viability at 250 uM after 48 hrs by EZ4U labeling based assay; conditions: human, hek293, 48 h
[19] = Drug metabolism in mouse liver microsomes at 50 uM preincubated for 5 mins followed by NADPH addition measured after 30 mins by UPLC-MS analysis; assay type: ADME, microsome; conditions: 0.5 h
CYP2D6 = CYP2D6 (Homo sapiens, UniProt P10635); assay: Inhibition of CYP2D6 (unknown origin) assessed as residual activity at 25 uM using luciferin-ME EGE as substrate by CYP450-Glo assay; assay type: ADME; conditions: CYP2D6 enzyme (unknown origin), probe luciferin-ME EGE, read-out: Activity
CYP2D6, sequence (P10635 whole entry): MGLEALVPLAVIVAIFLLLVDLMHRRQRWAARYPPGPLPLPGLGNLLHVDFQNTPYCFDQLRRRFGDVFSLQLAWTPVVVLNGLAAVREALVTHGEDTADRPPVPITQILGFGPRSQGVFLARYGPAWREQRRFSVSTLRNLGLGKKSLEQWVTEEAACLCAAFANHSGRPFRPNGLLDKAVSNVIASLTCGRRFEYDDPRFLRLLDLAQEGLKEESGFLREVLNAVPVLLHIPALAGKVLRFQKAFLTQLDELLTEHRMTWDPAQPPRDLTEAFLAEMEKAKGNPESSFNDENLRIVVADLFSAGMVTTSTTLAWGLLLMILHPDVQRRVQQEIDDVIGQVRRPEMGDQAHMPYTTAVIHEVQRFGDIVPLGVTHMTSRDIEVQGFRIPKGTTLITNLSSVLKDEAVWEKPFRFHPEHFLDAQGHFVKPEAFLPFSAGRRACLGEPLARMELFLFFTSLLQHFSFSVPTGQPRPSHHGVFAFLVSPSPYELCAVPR

Rattus norvegicus [20] = assay: Antidepressant-like activity in Wistar rat assessed as decrease in immobility time at 5 mg/kg, ip administered 60 mins prior to test measured for 5 mins by forced swim test; assay type: functional; set-up: scale not given: the % may be the effect or the level left
P-gp [21] = assay: Activity at recombinant human Pgp expressed in cell membranes assessed as basal ATPase activity at 50 uM after 40 mins by P-gp Glo assay relative to control; assay type: ADME; conditions: cell membranes expressing recombinant human P-gp, read-out: Activity
[22] = Intrinsic clearance in human liver microsomes at 50 uM preincubated for 5 mins followed by NADPH addition measured up to 45 mins; assay type: ADME, microsome; conditions: read-out: CLH
[23] = Cytotoxicity against HEK293 cells assessed as cell viability at 100 uM after 48 hrs by EZ4U labeling based assay relative to control; conditions: human, read-out: Activity
[24] = Drug metabolism in rat liver microsomes at 50 uM preincubated for 5 mins followed by NADPH addition measured after 30 mins by UPLC-MS analysis; assay type: ADME, microsome; conditions: 0.5 h
Mus musculus [25] = assay: Toxicity in Swiss albino mouse assessed as effect on spontaneous locomotor activity at 2.5 to 10 mg/kg, ip measured for 1 min; assay type: organism-based; conditions: in vivo
Mus musculus [26] = assay: Anxiolytic-like activity in Swiss albino mouse assessed as increase in number of punished crossings at 10 mg/kg, ip administered for 60 mins measured for 1 min post 3 sec electric shock by four-plate test; assay type: functional
Rattus norvegicus [27] = assay: Toxicity in Wistar rat assessed as effect on spontaneous locomotor activity at 2.5 to 10 mg/kg, ip measured for 5 mins by open field test; assay type: organism-based; conditions: in vivo
HepG2 [28] = assay: Cytotoxicity against human HepG2 cells assessed as reduction in ATP level at 1 to 100 uM after 120 mins by bioluminescence-based assay; assay type: cell-based; conditions: hepg2, 2 h
[29] = Cytotoxicity against human HepG2 cells assessed as ATP level at 100 uM after 120 mins by bioluminescence-based assay relative to control; assay type: cell-based; conditions: read-out: Activity
Mus musculus [30] = assay: Antidepressant-like activity in Swiss albino mouse assessed as decrease in immobility time at 1.25 to 2.5 mg/kg, ip administered 60 mins prior to test measured for last 4 mins of 6 mins observation by forced swim test; assay type: functional, organism-based
Mus musculus [31] = assay: Anxiolytic-like activity in Swiss albino mouse assessed as increase in number of punished crossings at 2.5 to 5 mg/kg, ip administered for 60 mins measured for 1 min post 3 sec electric shock by four-plate test; assay type: functional, organism-based
Mus musculus [32] = assay: Toxicity in Swiss albino mouse assessed as effect on spontaneous locomotor activity at 1.25 to 5 mg/kg, ip measured for 2 to 6 mins; assay type: organism-based; conditions: in vivo
[33] = Intrinsic clearance in rat liver microsomes at 50 uM preincubated for 5 mins followed by NADPH addition measured up to 30 mins; assay type: ADME, microsome; conditions: read-out: CLH
Salmonella typhimurium = assay: Mutagenicity in Salmonella typhimurium TA100 assessed as revertant colonies at 1 to 10 uM by Ames test; assay type: toxicity, organism-based; conditions: salmonella enterica subsp. enterica serovar typhimurium
Cytochrome P450 2D6 = Cytochrome P450 2D6 (Homo sapiens, UniProt P10635); assay: Inhibition of CYP2D6 (unknown origin) at 0.025 to 25 uM using luciferin-ME EGE as substrate by CYP450-Glo assay; assay type: ADME
Cytochrome P450 2D6, sequence (P10635 whole entry): as above

Rattus norvegicus [34] = assay: Antidepressant-like activity in Wistar rat assessed as decrease in immobility time at 10 mg/kg, ip administered 60 mins prior to test measured for 5 mins by forced swim test; assay type: functional; set-up: scale not given: the % may be the effect or the level left
P-gp [35] = assay: Activity at recombinant human Pgp expressed in cell membranes assessed as basal ATPase activity at 200 uM after 200 mins by P-gp Glo assay relative to control; assay type: ADME; conditions: cell membranes expressing recombinant human P-gp, read-out: Activity
[36] = Drug level in mouse liver microsomes treated with MF-8 at 50 uM preincubated for 5 mins followed by NADPH addition measured after 30 mins by UPLC-MS analysis; assay type: ADME, microsome; conditions: 0.5 h
[37] = Drug level in human liver microsomes treated with MF-8 at 50 uM preincubated for 5 mins followed by NADPH addition measured after 30 mins by UPLC-MS analysis; assay type: ADME, microsome; conditions: 0.5 h
[38] = Retention time of the compound by UPLC-MS analysis; assay type: physicochemical
[39] = Drug level in rat liver microsomes treated with MF-8 at 50 uM preincubated for 5 mins followed by NADPH addition measured after 30 mins by UPLC-MS analysis; assay type: ADME, microsome; conditions: 0.5 h
[40] = Drug metabolism in rat liver microsomes assessed as DM1451 formation at 50 uM preincubated for 5 mins followed by NADPH addition measured after 30 mins by UPLC-MS analysis; assay type: ADME, microsome; conditions: 0.5 h
[41] = Drug metabolism in mouse liver microsomes assessed as hydroxylated main metabolite formation at 50 uM preincubated for 5 mins followed by NADPH addition measured after 30 mins by UPLC-MS analysis; assay type: ADME, microsome; conditions: 0.5 h
[42] = Drug metabolism in human liver microsomes assessed as OPC-14857 formation at 50 uM preincubated for 5 mins followed by NADPH addition measured after 30 mins by UPLC-MS analysis; assay type: ADME, microsome; conditions: 0.5 h
[43] = Drug metabolism in mouse liver microsomes assessed as DM1451 formation at 50 uM preincubated for 5 mins followed by NADPH addition measured after 30 mins by UPLC-MS analysis; assay type: ADME, microsome; conditions: 0.5 h

Compound: N#CC(C#N)=NNc1cccc(Cl)c1 [CARBONYL CYANIDE M-CHLOROPHENYLHYDRAZONE]
- Activity (HepG2 [1]): 78%

Compound: COc1cccc2c1C(=O)c1c(O)c3c(c(O)c1C2=O)C[C@@](O)(C(=O)CO)C[C@@H]3O[C@H]1C[C@H](N)[C@H](O)[C@H](C)O1 [DOXORUBICIN]
- Activity (HEK293 [2]): Toxic

Compound: CN1C(=O)CN=C(c2ccccc2)c2cc(Cl)ccc21
- Activity (Mus musculus [3]): Active

Compound: Cn1c(=O)c2c(ncn2C)n(C)c1=O [CAFFEINE]
- Papp at 5 h, 200 µM [4]: 3.61 ×10⁻⁶ cm/s

Compound: CC1CCN(CC[C@H]2CCCN2S(=O)(=O)c2cccc(O)c2)CC1
- Activity (Rattus norvegicus [5]): 22%
- Activity (Rattus norvegicus [6]): 30%
- Activity (Mus musculus [7]): Active
- Activity (Mus musculus [8]): Active

Compound: O=C1CCc2ccc(OCCCCN3CCN(c4ccc(O)c(Cl)c4Cl)CC3)cc2N1
- Drug metabolism [9]: Metabolite_Detected
- Drug metabolism [10]: Metabolite_Detected

Compound: O=c1ccc2ccc(OCCCCN3CCN(c4cccc(Cl)c4Cl)CC3)cc2[nH]1
- Drug metabolism [11]: Metabolite_Detected

Compound: SODIUM ORTHOVANAD
- Activity [12]: 0%

Compound: CN(C)CCCN1c2ccccc2CCc2ccccc21 [IMIPRAMINE]
- Activity (Mus musculus [13]): Active
- Activity (Rattus norvegicus [14]): 30%

Compound: CCn1cc(C(=O)O)c(=O)c2cc(F)c(N3CCNCC3)cc21 [NORFLOXACIN]
- Papp at 5 h, 200 µM [4]: 0.95 ×10⁻⁶ cm/s

Compound: COc1ccccc1N1CCN(CC(O)CN2C(=O)NC(C)(c3ccc(F)cc3)C2=O)CC1 (stereo not given)
- Activity (Mus musculus [15]): 36%
- Drug metabolism [16]: Metabolite_Detected
- CLint scaled at 50 µM [17]: 17.2 mL/min/kg
- Activity (HEK293 [18]): Toxic
- Drug metabolism [19]: Metabolite_Detected
- activity at 25 µM (CYP2D6): 69.4%
- Activity (Rattus norvegicus [20]): 35%
- activity at 40 min, 50 µM (P-gp [21]): 88.7%
- CLint scaled at 50 µM [22]: 8.2 mL/min/kg
- viability at 48 h, 100 µM [23]: 89.2%
- Drug metabolism [24]: Metabolite_Detected
- Activity (Mus musculus [25]): Non-Toxic
- Papp at 5 h, 200 µM [4]: 2.3 ×10⁻⁶ cm/s
- Activity (Mus musculus [26]): 30%
- Activity (Rattus norvegicus [27]): Non-Toxic
- Activity (HepG2 [28]): Non-Toxic
- viability at 2 h, 100 µM [29]: 90%
- Activity (Mus musculus [30]): inactive
- Activity (Mus musculus [31]): inactive
- Activity (Mus musculus [32]): Non-Toxic
- CLint scaled at 50 µM [33]: 21.2 mL/min/kg
- Activity (Salmonella typhimurium): Non-Toxic
- inhibition (INH) (Cytochrome P450 2D6): Not Active
- Activity (Rattus norvegicus [34]): 26%

Compound: COc1ccc(CCN(C)CCCC(C#N)(c2ccc(OC)c(OC)c2)C(C)C)cc1OC (stereo not given)
- activity at 200 min, 200 µM (P-gp [35]): > 160%

Compound: COc1cc(O)ccc1N1CCN(CC(O)CN2C(=O)NC(C)(c3ccc(F)cc3)C2=O)CC1 (stereo not given)
- Drug metabolism [36]: Metabolite_Detected
- Drug metabolism [37]: Metabolite_Detected
- Retention_time [38]: 3.4 min
- Drug metabolism [39]: Metabolite_Detected

Compound: O=C1CCc2ccc(OCCCCN3CCN(c4cccc(Cl)c4Cl)CC3)cc2N1 [ARIPIPRAZOLE]
- Drug metabolism [40]: Metabolite_Detected
- CLint scaled at 50 µM [17]: 12.5 mL/min/kg
- Drug metabolism [41]: Metabolite_Detected
- Drug metabolism [42]: Metabolite_Detected
- Drug metabolism [43]: Metabolite_Detected
- CLint scaled at 50 µM [33]: 7.02 mL/min/kg

— ChEMBL document CHEMBL4184284, “MF-8, a novel promising arylpiperazine-hydantoin based 5-HT7 receptor antagonist: In vitro drug-likeness studies and in vivo pharmacological evaluation” (Bioorg Med Chem Lett, 2018)
